According to article PMC6017322, “Triterpene Acids from Frankincense and Semi-Synthetic Derivatives That Inhibit 5-Lipoxygenase and Cathepsin G” (Molecules : A Journal of Synthetic Chemistry and Natural …, 2018):

Key:
cathepsin G = target: T1, cathepsin G (Homo sapiens, UniProt P08311); experiment: Cathepsin G activity in a cell-free assay (Suc-AAPF-pNA substrate); format: biochemical; conditions: for Cat. G IC50 / IC50 / remaining activity at 10 µM: cell-free; for Cat. G IC50 / IC50: purified cathepsin G from human neutrophils; for IC50: read-out: Cat. G IC50 (converted); for remaining activity at 10 µM: residual activity at 10 µM, mean ± SEM, 3–4 experiments, read-out: Cat. G Activity [% Control]
T1 construct: purified cathepsin G (0.2 µg) from human neutrophils; purchased Calbiochem; host or cells: human neutrophils (natural source)
T1 sequence (P08311 21-244 limits assumed): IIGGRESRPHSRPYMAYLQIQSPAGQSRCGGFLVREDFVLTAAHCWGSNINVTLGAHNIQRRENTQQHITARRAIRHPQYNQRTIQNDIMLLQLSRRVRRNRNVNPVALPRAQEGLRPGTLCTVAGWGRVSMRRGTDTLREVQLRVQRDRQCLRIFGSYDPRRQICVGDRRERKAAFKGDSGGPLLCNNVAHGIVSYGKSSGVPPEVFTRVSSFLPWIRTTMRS
Protocol: Commercially available purified cathepsin G (0.2 µg) from human neutrophils (Calbiochem, La Jolla, CA, USA) was mixed with test compounds or DMSO (vehicle control) in 200 µL 0.1 M HEPES pH 7.4, 0.5 M NaCl, and 10% DMSO in a 96-well plate (Greiner Bio-One, Frickenhausen, Germany) and pre-incubated for 20 min at 25 °C. Then, N-Suc–Ala–Ala–Pro–Phe–pNA (Suc–AAPF–pNA) (1 mM) as substrate for cathespin G was added, and the absorbance was measured at 410 nm at 25 °C using a Victor^2 plate reader (PerkinElmer, Waltham, MA, USA).

5-LO [1] = target: T2, 5-LO (Homo sapiens, UniProt P09917); experiment: 5-LO activity in a cell-free assay (isolated human recombinant 5-LO, 20 µM arachidonic acid); format: biochemical; set-up: made in house; host or cells: Escherichia coli BL21 (pT3-5-LO plasmid); conditions: for IC50: isolated human 5-LO; for IC50 / remaining activity at 10 µM / 5-LO Activity [% Control] cell-free: 20 µM arachidonic acid; for remaining activity at 10 µM / 5-LO Activity [% Control] cell-free: residual activity at 10 µM, isolated 5-LO, mean ± SEM, 3–4 experiments; for remaining activity at 10 µM: read-out: 5-LO Activity [% Control] cell-free; for inhibition at 10 µM / inhibition of 5-LO activity, cell-free: at 10 µM
T2 sequence (P09917 1-674): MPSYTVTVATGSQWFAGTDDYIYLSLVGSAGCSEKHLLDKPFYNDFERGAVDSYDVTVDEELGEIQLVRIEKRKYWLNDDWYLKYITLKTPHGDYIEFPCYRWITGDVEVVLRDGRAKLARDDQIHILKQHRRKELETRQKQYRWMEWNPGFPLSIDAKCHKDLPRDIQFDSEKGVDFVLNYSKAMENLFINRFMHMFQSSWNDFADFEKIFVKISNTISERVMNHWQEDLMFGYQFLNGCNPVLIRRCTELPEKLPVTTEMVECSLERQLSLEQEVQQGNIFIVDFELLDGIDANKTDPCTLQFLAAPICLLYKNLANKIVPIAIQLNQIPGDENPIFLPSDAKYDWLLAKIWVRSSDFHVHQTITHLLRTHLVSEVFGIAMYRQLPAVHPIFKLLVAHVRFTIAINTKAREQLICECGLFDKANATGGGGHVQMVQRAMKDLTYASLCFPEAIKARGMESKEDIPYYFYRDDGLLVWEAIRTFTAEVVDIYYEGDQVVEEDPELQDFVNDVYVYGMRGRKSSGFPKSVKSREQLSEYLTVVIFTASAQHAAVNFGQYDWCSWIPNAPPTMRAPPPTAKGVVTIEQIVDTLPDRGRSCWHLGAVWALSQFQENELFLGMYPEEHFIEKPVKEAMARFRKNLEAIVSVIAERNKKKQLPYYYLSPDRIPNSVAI
Protocol: Human recombinant 5-LO was expressed in Eschericha coli BL21 transformed with pT3-5-LO plasmid at 30 °C overnight, as described elsewhere. Cells were lysed in lysis buffer containing triethanolamine (50 mM, pH 8.0), EDTA (5 mM), phenylmethanesulfonyl fluoride (1 mM), soybean trypsin inhibitor (60 µg/mL), dithiothreitol (2 mM), and lysozyme (1 mg/mL), and homogenized by sonification (3 × 15 s). 5-LO was then purified from 40,000× g supernatant (20 min, 4 °C) using an ATP-agarose column (Sigma-Aldrich, Deisenhofen, Germany), diluted with PBS buffer containing 1 mM EDTA, and immediately used for 5-LO activity assays.
To determine 5-LO activity, aliquots of purified 5-LO (0.5 µg 5-LO in 1 mL PBS plus 1 mM EDTA) were pre-incubated with the test compounds or vehicle (0.1% dimethyl sulfoxide, DMSO) on ice for 15 min, pre-warmed for 30 s at 37 °C in a water bath, and then stimulated with 20 µM AA and CaCl2 2 mM for 10 min at 37 °C. The reaction was stopped with one volume of ice-cold methanol and 5-LO products (including all-trans-isomers of LTB4 and 5-hydroperoxyeicosatetraenoic acid (5-HpETE), as well as its corresponding alcohol 5-hydroxyeicosatetraenoic acid (5-HETE)) were analyzed by reversed phase (RP)-HPLC (Elite LaChrom, VWR, Radnor, PA, USA) as previously described. In brief, acidified PBS and 200 ng of internal PGB1 standard were added and solid phase extraction using C18 RP-columns (100 mg, UCT, Bristol, PA, USA) was performed. After elution with methanol, samples were analyzed by RP-HPLC using a C-18 Radial-PAK column (Waters, Eschborn, Germany).

5-LO [2] = target: T2, 5-LO; experiment: 5-LO product formation in intact human neutrophils stimulated with A23187 (cell-based); set-up: 5-LO product formation in intact human neutrophils; endogenous in cells; host or cells: freshly isolated human peripheral blood neutrophils; conditions: for IC50: human neutrophils stimulated with A23187; for remaining activity at 10 µM / 5-LO Activity [% Control] cell-based: residual activity at 10 µM, A23187, mean ± SEM, 3–4 experiments; for remaining activity at 10 µM: read-out: 5-LO Activity [% Control] cell-based
Protocol: Neutrophils were isolated from peripheral blood (University Hospital Tübingen, Germany), collected from fasted healthy adult donors that were informed about the aim of the study and gave written consent. Leukocyte concentrates were obtained by centrifugation (4000× g, 20 min, 20 °C) of heparinized blood preparation, and neutrophils were immediately isolated as described before. Briefly, leukocyte concentrates were subjected to dextran sedimentation and centrifuged on lymphocyte separation medium (LSM 1077, PAA, Coelbe, Germany). For isolation of pelleted neutrophils, remaining erythrocytes were removed by hypotonic lysis, washed twice with ice-cold phosphate-buffered saline (PBS) and finally resuspended in PBS buffer containing 0.1% glucose and CaCl2 (1 mM) (PGC buffer).
5-LO product formation in intact human neutrophils was performed using 5 × 10^6 freshly isolated cells that were resuspended in 1 mL PGC buffer. Cells were pre-incubated with the test compounds or vehicle (0.1% DMSO) at 37 °C for 15 min prior to stimulation with 2.5 µM Ca^2+-ionophore A23187 for 10 min (37 °C). 5-LO product formation was stopped by addition of one volume of ice-cold methanol, samples were subjected to solid phase extraction after addition of 200 ng PGB1 as internal standard, and 5-LO products (LTB4, its trans-isomers and 5-HETE) were analyzed by RP-HPLC as described above.

IC50 (cathepsin G)	5-LO Activity [% Control] cell-based (5-LO [2]; human neutrophils)	5-LO Activity [% Control] cell-free (5-LO [1])	inhibition of 5-LO activity in intact cells (5-LO [2]; at 10 µM, human neutrophils)	SMILES	Cat. G IC50 (cathepsin G)	remaining activity at 10 µM (cathepsin G)	IC50 (5-LO [1])	remaining activity at 10 µM (5-LO [1])	IC50 (5-LO [2])	remaining activity at 10 µM (5-LO [2]; human neutrophils)	inhibition at 10 µM (5-LO [1])	inhibition at 10 µM (5-LO [2]; at 10 µM, human neutrophils, read-out: inhibition of 5-LO activity in intact cells)	inhibition of 5-LO activity, cell-free (5-LO [1])	inhibition at 10 µM (cathepsin G; at 10 µM)	inhibition of cathepsin G (cathepsin G; at 10 µM)	fold more potent than AKBA 1 in intact cells (5-LO [2]; human neutrophils, IC50 comparison)
0.6 µM				CC(=O)O[C@@H]1CC[C@@]2(C)[C@@H](CC[C@]3(C)[C@@H]2C(=O)C=C2[C@@H]4[C@@H](C)[C@H](C)CC[C@]4(C)CC[C@]23C)[C@@]1(C)C(=O)O [compound 1, 3-O-acteyl-11-keto-β-BA]	submicromolar	14.8 ± 0.9%	3 µM	40.7 ± 10.8%	3 µM	23.1 ± 9.8%						
4.1 µM				C[C@H]1[C@H](C)CC[C@]2(C)CC[C@]3(C)C(=CC(=O)[C@@H]4[C@@]5(C)CC[C@@H](O)[C@](C)(C(=O)O)[C@@H]5CC[C@]43C)[C@H]12 [compound 2, 11-keto-β-BA]		29.4 ± 3.5%	4.6 µM	31.1 ± 5%	3.5 µM	25.7 ± 7.3%						
2 µM	n.i.			CC(=O)O[C@@H]1CC[C@@]2(C)[C@@H](CC[C@]3(C)[C@@H]2CC=C2[C@@H]4[C@@H](C)[C@H](C)CC[C@]4(C)CC[C@]23C)[C@@]1(C)C(=O)O [compound 4, 3-O-acteyl-β-BA]		28.1 ± 4.9%		73.5 ± 13.3%			21 to 26%					
		n.i.	hardly active	C=C(C)[C@@H]1CC[C@]2(C)[C@H](CC=C3[C@@H]4[C@@H](C)[C@H](C)CC[C@]4(C)CC[C@]32C)[C@@]1(C)CCC(=O)O [compound 5]		69.8 ± 8%				74.5 ± 3.7%			failed in this respect			
	n.i.	n.i.	hardly active	CC(C)[C@@H]1CC[C@]2(C)[C@H](CC=C3[C@@H]4[C@@H](C)[C@H](C)CC[C@]4(C)CC[C@]32C)[C@@]1(C)CCC(=O)O [compound 6]		70.4 ± 3.9%							failed in this respect			
				CC(C)[C@@H]1CC[C@]2(C)[C@H](C(=O)C=C3[C@@H]4[C@@H](C)[C@H](C)CC[C@]4(C)CC[C@]32C)[C@@]1(C)CCC(=O)O [compound 7]		53.8 ± 8.1%		73 ± 8.1%	4.3 µM	7.1 ± 3.3%	27%					
				C=C(C)[C@@H]1CC[C@]2(C)CC[C@]3(C)[C@H](CC[C@@H]4[C@@]5(C)CC[C@@H](O)[C@](C)(C(=O)O)[C@@H]5CC[C@]43C)[C@@H]12 [compound 9]		58.1 ± 3.6%		76.6 ± 12.2%	4 µM	36.2 ± 5.1%			did not markedly inhibit 5-LO	27 to 44%		
				C=C(C)[C@@H]1CC[C@]2(CO)CC[C@]3(C)[C@H](CC[C@@H]4[C@@]5(C)CC[C@@H](O)[C@](C)(C(=O)O)[C@@H]5CC[C@]43C)[C@@H]12 [compound 11]		68.1 ± 6.5%	10 µM	52.7 ± 7.1%	4.6 µM	24 ± 7.2%				27 to 44%		
				C=C(C)[C@@H]1CC[C@]2(CO)CC[C@]3(C)[C@H](CC[C@@H]4[C@@]5(C)CC[C@@H](OC(C)=O)[C@](C)(C(=O)O)[C@@H]5CC[C@]43C)[C@@H]12 [compound 12]		87.2 ± 2.5%	8.3 µM	41.8 ± 3.4%	5.1 µM	28.4 ± 11.1%					failed to markedly inhibit cathepsin G	
				CC(C)=CCC[C@H](C(=O)O)[C@@H]1CC[C@]2(C)C3=CC[C@H]4C(C)(C)[C@H](O)CC[C@]4(C)[C@H]3CC[C@@]12C [compound 13]		72.3 ± 3.6%		89.6 ± 8.5%	2.9 µM	8.2 ± 2.2%				27 to 44%		
				CC(C)=CCC[C@H](C(=O)O)[C@@H]1CC[C@]2(C)C3=C(CC[C@@]12C)[C@@]1(C)CC[C@@H](O)C(C)(C)[C@@H]1CC3 [compound 14]		73 ± 7.3%		66 ± 15.1%	1.1 µM	3.1 ± 0.6%	34%			27 to 44%		about 3 fold

SMILES	IC50 (cathepsin G)	5-LO Activity [% Control] cell-based (5-LO [2]; human neutrophils)	5-LO Activity [% Control] cell-free (5-LO [1])	inhibition of 5-LO activity in intact cells (5-LO [2]; at 10 µM, human neutrophils)	Cat. G IC50 (cathepsin G)	remaining activity at 10 µM (cathepsin G)	IC50 (5-LO [1])	remaining activity at 10 µM (5-LO [1])	IC50 (5-LO [2])	remaining activity at 10 µM (5-LO [2]; human neutrophils)	inhibition at 10 µM (5-LO [1])	inhibition at 10 µM (5-LO [2]; at 10 µM, human neutrophils, read-out: inhibition of 5-LO activity in intact cells)	inhibition of 5-LO activity, cell-free (5-LO [1])	inhibition at 10 µM (cathepsin G; at 10 µM)	inhibition of cathepsin G (cathepsin G; at 10 µM)	fold more potent than AKBA 1 in intact cells (5-LO [2]; human neutrophils, IC50 comparison)
C[C@H]1[C@H](C)CC[C@]2(C)CC[C@]3(C)C(=CC[C@@H]4[C@@]5(C)CC[C@@H](O)[C@](C)(C(=O)O)[C@@H]5CC[C@]43C)[C@H]12 [compound 3, β-BA]	0.5 µM				submicromolar	27.7 ± 1.8%		78.7 ± 12.6%		53 ± 7.6%	21 to 26%	47%				
C=C(C)[C@@H]1CC[C@]2(C)CC[C@]3(C)[C@H](CC[C@@H]4[C@@]5(C)CC[C@@H](OC(C)=O)[C@](C)(C(=O)O)[C@@H]5CC[C@]43C)[C@@H]12 [compound 10]	7.5 µM		n.i.			35.9 ± 2.5%				88.7 ± 6.7%			did not markedly inhibit 5-LO	> 50%		
